In the supplement of paper PMC11665569:
± gives the standard deviation of the averaged measurements.

Key:
Assay in all cases: relative viability (fraction of vehicle control); higher = more viable / less inhibited
Conditions in all cases: treatment time: 5 days
SW1573 = test system: SW1573
Description: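 CCK-8 viability of SW1573 cells transfected with control, YAP/TAZ or TEAD1-4 siRNAs and treated with KRAS G12C inhibitors for 5 days. Values are normalised to vehicle control.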

H1373 = test system: H1373
Description: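 CCK-8 viability of H1373 cells with empty vector or constitutively active YAP S127A, treated with KRAS G12C inhibitors for 5 days, normalised to vehicle control.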

H2030 = test system: H2030
Description: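 CCK-8 viability of H2030 cells transfected with control, YAP/TAZ or TEAD1-4 siRNAs and treated with KRAS G12C inhibitors for 5 days. Values are normalised to vehicle control.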

H358 = test system: H358
Description: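 CCK-8 viability of H358 cells with empty vector or constitutively active YAP S127A, treated with KRAS G12C inhibitors for 5 days. Absorbance at 450 nm normalised to vehicle control.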

C=C(F)C(=O)N1CCN(c2nc(OC[C@@H]3CCCN3C)nc3c2CCN(c2cccc4cccc(Cl)c24)C3)C[C@@H]1CC#N [MRTX849]
relative viability
Conditions | H358 | H1373 | H2030 | SW1573
log10 concentration (uM): 0, ectopic expression: YAP S127A | 0.6 ± 0.033 | 0.547 ± 0.044 | – | –
log10 concentration (uM): 0, ectopic expression: empty vector (YAP experiment) | 0.139 ± 0.025 | 0.301 ± 0.0055 | – | –
log10 concentration (uM): 0, siRNA knockdown: TEAD1-4 siRNA 1 | – | – | 0.333 ± 0.042 | 0.154 ± 0.02
log10 concentration (uM): 0, siRNA knockdown: TEAD1-4 siRNA 2 | – | – | 0.289 ± 0.033 | 0.307 ± 0.062
log10 concentration (uM): 0, siRNA knockdown: YAP/TAZ siRNA 1 | – | – | 0.531 ± 0.042 | 0.0935 ± 0.015
log10 concentration (uM): 0, siRNA knockdown: YAP/TAZ siRNA 2 | – | – | 0.441 ± 0.099 | 0.0411 ± 0.0087
log10 concentration (uM): 0, siRNA knockdown: negative control siRNA | – | – | 0.768 ± 0.29 | 0.426 ± 0.091
log10 concentration (uM): 0.69897, ectopic expression: YAP S127A | 0.144 ± 0.069 | 0.0844 ± 0.017 | – | –
log10 concentration (uM): 0.69897, ectopic expression: empty vector (YAP experiment) | 0.0333 ± 0.033 | 0.0167 ± 0.003 | – | –
log10 concentration (uM): 0.69897, siRNA knockdown: TEAD1-4 siRNA 1 | – | – | 0.0176 ± 0.0044 | 0.0234 ± 0.0063
log10 concentration (uM): 0.69897, siRNA knockdown: TEAD1-4 siRNA 2 | – | – | 0.0364 | 0.127 ± 0.03
log10 concentration (uM): 0.69897, siRNA knockdown: YAP/TAZ siRNA 1 | – | – | 0.0187 ± 0.0039 | 0.00636 ± 0.0042
log10 concentration (uM): 0.69897, siRNA knockdown: YAP/TAZ siRNA 2 | – | – | 0.0145 ± 0.0049 | 0.00791 ± 0.0041
log10 concentration (uM): 0.69897, siRNA knockdown: negative control siRNA | – | – | 0.162 ± 0.12 | 0.00854 ± 0.0029
log10 concentration (uM): -0.30103, ectopic expression: YAP S127A | 0.811 ± 0.22 | 0.529 ± 0.036 | – | –
log10 concentration (uM): -0.30103, ectopic expression: empty vector (YAP experiment) | 0.217 ± 0.076 | 0.307 ± 0.02 | – | –
log10 concentration (uM): -0.30103, siRNA knockdown: TEAD1-4 siRNA 1 | – | – | 0.413 ± 0.04 | 0.173 ± 0.015
log10 concentration (uM): -0.30103, siRNA knockdown: TEAD1-4 siRNA 2 | – | – | 0.358 ± 0.016 | 0.246 ± 0.02
log10 concentration (uM): -0.30103, siRNA knockdown: YAP/TAZ siRNA 1 | – | – | 0.458 ± 0.14 | 0.141 ± 0.007
log10 concentration (uM): -0.30103, siRNA knockdown: YAP/TAZ siRNA 2 | – | – | 0.496 ± 0.066 | 0.0897 ± 0.0099
log10 concentration (uM): -0.30103, siRNA knockdown: negative control siRNA | – | – | 0.814 ± 0.24 | 0.66 ± 0.035
log10 concentration (uM): -1, ectopic expression: YAP S127A | 0.733 ± 0.13 | 0.591 ± 0.028 | – | –
log10 concentration (uM): -1, ectopic expression: empty vector (YAP experiment) | 0.328 ± 0.1 | 0.436 ± 0.012 | – | –
log10 concentration (uM): -1, siRNA knockdown: TEAD1-4 siRNA 1 | – | – | 0.468 ± 0.053 | 0.244 ± 0.026
log10 concentration (uM): -1, siRNA knockdown: TEAD1-4 siRNA 2 | – | – | 0.437 ± 0.055 | 0.263 ± 0.053
log10 concentration (uM): -1, siRNA knockdown: YAP/TAZ siRNA 1 | – | – | 0.409 ± 0.25 | 0.154 ± 0.034
log10 concentration (uM): -1, siRNA knockdown: YAP/TAZ siRNA 2 | – | – | 0.238 ± 0.3 | 0.0905 ± 0.0041
log10 concentration (uM): -1, siRNA knockdown: negative control siRNA | – | – | 0.814 ± 0.23 | 0.726 ± 0.012
log10 concentration (uM): -1.30103, ectopic expression: YAP S127A | 0.811 ± 0.069 | 0.578 ± 0.053 | – | –
log10 concentration (uM): -1.30103, ectopic expression: empty vector (YAP experiment) | 0.361 ± 0.0096 | 0.45 ± 0.035 | – | –
log10 concentration (uM): -1.30103, siRNA knockdown: TEAD1-4 siRNA 1 | – | – | 0.473 ± 0.06 | 0.262 ± 0.049
log10 concentration (uM): -1.30103, siRNA knockdown: TEAD1-4 siRNA 2 | – | – | 0.428 ± 0.039 | 0.289 ± 0.026
log10 concentration (uM): -1.30103, siRNA knockdown: YAP/TAZ siRNA 1 | – | – | 0.625 ± 0.072 | 0.161 ± 0.0043
log10 concentration (uM): -1.30103, siRNA knockdown: YAP/TAZ siRNA 2 | – | – | 0.322 ± 0.18 | 0.108 ± 0.014
log10 concentration (uM): -1.30103, siRNA knockdown: negative control siRNA | – | – | 0.795 ± 0.24 | 0.751 ± 0.028
log10 concentration (uM): -2, ectopic expression: YAP S127A | 1.02 ± 0.16 | 0.781 ± 0.18 | – | –
log10 concentration (uM): -2, ectopic expression: empty vector (YAP experiment) | 0.678 ± 0.098 | 0.863 ± 0.093 | – | –
log10 concentration (uM): -2, siRNA knockdown: TEAD1-4 siRNA 1 | – | – | 0.676 ± 0.085 | 0.463 ± 0.022
log10 concentration (uM): -2, siRNA knockdown: TEAD1-4 siRNA 2 | – | – | 0.707 ± 0.1 | 0.452 ± 0.075
log10 concentration (uM): -2, siRNA knockdown: YAP/TAZ siRNA 1 | – | – | 0.901 ± 0.071 | 0.23 ± 0.018
log10 concentration (uM): -2, siRNA knockdown: YAP/TAZ siRNA 2 | – | – | 0.521 ± 0.31 | 0.181 ± 0.0047
log10 concentration (uM): -2, siRNA knockdown: negative control siRNA | – | – | 0.836 ± 0.2 | 0.847 ± 0.029
log10 concentration (uM): -2.30103, ectopic expression: YAP S127A | 1.1 ± 0.14 | 0.818 ± 0.066 | – | –
log10 concentration (uM): -2.30103, ectopic expression: empty vector (YAP experiment) | 0.783 ± 0.044 | 0.904 ± 0.063 | – | –
log10 concentration (uM): -2.30103, siRNA knockdown: TEAD1-4 siRNA 1 | – | – | 0.774 ± 0.058 | 0.552 ± 0.046
log10 concentration (uM): -2.30103, siRNA knockdown: TEAD1-4 siRNA 2 | – | – | 0.625 ± 0.058 | 0.5 ± 0.073
log10 concentration (uM): -2.30103, siRNA knockdown: YAP/TAZ siRNA 1 | – | – | 0.958 ± 0.073 | 0.345 ± 0.022
log10 concentration (uM): -2.30103, siRNA knockdown: YAP/TAZ siRNA 2 | – | – | 0.707 ± 0.14 | 0.308 ± 0.012
log10 concentration (uM): -2.30103, siRNA knockdown: negative control siRNA | – | – | 0.836 ± 0.19 | 0.915 ± 0.043
log10 concentration (uM): -3, ectopic expression: YAP S127A | 1.27 ± 0.033 | 0.938 ± 0.066 | – | –
log10 concentration (uM): -3, ectopic expression: empty vector (YAP experiment) | 0.828 ± 0.035 | 1.07 ± 0.074 | – | –
log10 concentration (uM): -3, siRNA knockdown: TEAD1-4 siRNA 1 | – | – | 1.02 ± 0.028 | 0.913 ± 0.026
log10 concentration (uM): -3, siRNA knockdown: TEAD1-4 siRNA 2 | – | – | 0.844 ± 0.084 | 0.702 ± 0.093
log10 concentration (uM): -3, siRNA knockdown: YAP/TAZ siRNA 1 | – | – | 1.07 ± 0.071 | 0.582 ± 0.034
log10 concentration (uM): -3, siRNA knockdown: YAP/TAZ siRNA 2 | – | – | 0.756 ± 0.18 | 0.531 ± 0.012
log10 concentration (uM): -3, siRNA knockdown: negative control siRNA | – | – | 0.909 ± 0.11 | 0.978 ± 0.08
log10 concentration (uM): -4, ectopic expression: YAP S127A | 1.12 ± 0.038 | 1.01 ± 0.012 | – | –
log10 concentration (uM): -4, ectopic expression: empty vector (YAP experiment) | 0.778 ± 0.035 | 0.995 ± 0.062 | – | –
log10 concentration (uM): -4, siRNA knockdown: TEAD1-4 siRNA 1 | – | – | 1.14 ± 0.055 | 0.988 ± 0.081
log10 concentration (uM): -4, siRNA knockdown: TEAD1-4 siRNA 2 | – | – | 0.984 ± 0.074 | 0.877 ± 0.072
log10 concentration (uM): -4, siRNA knockdown: YAP/TAZ siRNA 1 | – | – | 1.17 ± 0.027 | 0.915 ± 0.038
log10 concentration (uM): -4, siRNA knockdown: YAP/TAZ siRNA 2 | – | – | 0.911 ± 0.17 | 0.845 ± 0.056
log10 concentration (uM): -4, siRNA knockdown: negative control siRNA | – | – | 0.97 ± 0.048 | 0.997 ± 0.053
